{
  "source": "patent US6331287A",
  "about": "“2'-deoxy-2'-fluoro-d-arabinofuranosyl pyrimidine nucleoside” (University Advanced Bio-imaging Associates, priority 1998, dated 2001)",
  "key": {"[1]": {"details": "cited from earlier work"}, "[2]": {"tested_on": "viral kinases", "details": "relative to thymidine, cell culture systems; cited from earlier work"}, "[3]": {"details": "patients, Phase I; cited from earlier work"}, "[4]": {"tested_on": "mammalian kinases", "details": "relative to thymidine, cell culture systems; cited from earlier work"}, "[5]": {"tested_on": "thymidine incorporation", "details": "read-out: ED50 for inhibition of thymidine incorporation; cited from earlier work"}, "[6]": {"details": "dogs; cited from earlier work"}, "[7]": {"details": "dogs, cited from earlier work"}, "[8]": {"details": "rats, cited from earlier work"}, "[9]": {"tested_on": "PC12 cells", "details": "in culture; cited from earlier work"}, "[10]": {"tested_on": "host DNA", "details": "cited from earlier work"}, "[11]": {"details": "mice, cited from earlier work"}, "[12]": {"tested_on": "organs with rapidly dividing cells such as the small intestine and spleen", "details": "rats; cited from earlier work"}, "[13]": {"tested_on": "Vero cells", "details": "in culture; cited from earlier work"}, "[14]": {"assay": "Plasma clearance of [^11 C]FMAU or [^11 C]TdR after intravenous bolus in dogs (FIG. 1)", "assay_type": "in vivo", "details": "dog; for plasma clearance: intravenous"}, "[15]": {"assay": "HPLC analysis of plasma samples for radiolabeled metabolites in dogs", "assay_type": "in vivo", "details": "dog, FMAU over 90 minutes"}, "[16]": {"tested_on": "brain tumor (gliosarcoma)", "details": "dogs not infected by herpes simplex virus, PET"}, "[17]": {"assay": "Storage stability of compound 2", "assay_type": "physicochemical", "details": "after flash chromatography, anhydrous conditions", "method": "After purification by flash chromatography compound 2 could be stored at room temperature for at least 10 months under anhydrous conditions. Its melting point was broad due to the fact that a mixture of four diastereomers were probably present. Treatment of compound 2 with n-butyllithium (2.5 equivalent) produced the dianion 3 in situ which was treated with either unlabeled or [^11 C]-methyl iodide to produce the methylated product 4. The major by-product in the methylation reaction was the dehalogenated compound 5. The ratio of the desired product to the by-product was 43:57, as determined by ^1 HNMR integration of the C6 hydrogen. Deprotection of the tetrahydropyranyl ether produced the desired compound FMAU in 82% chemical yield."}, "[18]": {"details": "intravenous, through 24 hours, HPLC"}, "[19]": {"details": "intravenous bolus 20-25 mCi, 50-100 Ci/mmol, two components of approximately equal amplitudes"}},
  "note": "pIC50: −log10 of the molar value. “Also recorded” adds a separate entry of the source. Where two headings read alike, the source gives them in different places.",
  "data": [
    {"smiles": "O=c1[nH]c(=O)n([C@@H]2O[C@H](CO)[C@@H](O)[C@@H]2F)cc1I", "note": "[FIAU, 2'-Fluoro-5-iodo-1-β-D-arabinofuranosyluracil]", "values": [
      {"measurement": "dehalogenation / deiodination in vivo", "setting": "[1]", "value": "deiodination followed by methylation at the 5 position of the base also can occur prior to DNA incorporation"}
    ]},
    {"smiles": "Cc1cn([C@@H]2O[C@H](CO)[C@@H](O)[C@@H]2F)c(=O)[nH]c1=O", "note": "[FMAU, 2'-fluoro-5-methyl-1-β-D-arabinofuranosyluracil]", "values": [
      {"measurement": "phosphorylation by viral kinases", "setting": "[2]", "value": "good substrate relative to thymidine"},
      {"measurement": "dose above which significant dose-limiting neurotoxicity developed", "setting": "[3]", "value": "above 8 mg/m^2×5 days"},
      {"measurement": "phosphorylation by mammalian kinases", "setting": "[4]", "value": "phosphorylated by mammalian kinases to levels approaching that of thymidine; also recorded: good substrate relative to thymidine"},
      {"measurement": "pIC50", "setting": "[5]", "value": "4.55 to 5.10"},
      {"measurement": "LD10", "setting": "[6]", "value": 25, "unit": "mg/m^2×10 days"},
      {"measurement": "glucuronide adduct of FMAU among trace metabolites", "setting": "[7]; urine, present in all three species", "value": "most abundant in dogs"}
    ]},
    {"smiles": "Cc1cn([C@@H]2O[C@H](CO)[C@@H](O)[C@@H]2F)[14c](=O)[nH]c1=O", "note": "[[2-^14 C]-FMAU]", "values": [
      {"measurement": "composition of urine radioactivity", "setting": "[8]; [18]", "value": "primarily of unchanged parent compound"},
      {"measurement": "injected radioactivity cleared into the urine", "setting": "[8]; intravenous", "value": "Nearly all"},
      {"measurement": "four minor metabolites, share of total urine radioactivity", "setting": "[8]; urine at 24 hr", "value": "< 5", "unit": "%"},
      {"measurement": "accumulation in proliferating PC12 cells", "setting": "[9]", "value": "preferentially observed"},
      {"measurement": "incorporation into host DNA", "setting": "[10]", "value": "substantial incorporation"},
      {"measurement": "composition of urine radioactivity", "setting": "[11]; [18]", "value": "primarily of unchanged parent compound"},
      {"measurement": "injected radioactivity cleared into the urine", "setting": "[11]; intravenous", "value": "Nearly all"},
      {"measurement": "four minor metabolites, share of total urine radioactivity", "setting": "[11]; urine at 24 hr", "value": "< 15", "unit": "%"},
      {"measurement": "accumulation in small intestine and spleen", "setting": "[12]", "value": "preferentially observed"},
      {"measurement": "accumulation in proliferating Vero cells", "setting": "[13]", "value": "preferentially observed"},
      {"measurement": "composition of urine radioactivity", "setting": "[7]; [18]", "value": "primarily of unchanged parent compound"},
      {"measurement": "injected radioactivity cleared into the urine", "setting": "[7]; intravenous", "value": "Nearly all"},
      {"measurement": "four minor metabolites, share of total urine radioactivity", "setting": "[7]; urine at 24 hr", "value": "less than 3%"}
    ]},
    {"smiles": "[11CH3]c1cn([C@@H]2O[C@H](CO)[C@@H](O)[C@@H]2F)c(=O)[nH]c1=O", "note": "[[^11 C]FMAU, 2'-fluoro-5-[^11 C-methyl]-1-β-D-arabinofuranosyluracil]", "values": [
      {"measurement": "plasma clearance", "setting": "[14]", "value": "rapid plasma clearance"},
      {"measurement": "half time of first exponential component of plasma activity concentration curve", "setting": "[14]; [19]", "value": 2.4, "unit": "min"},
      {"measurement": "half time of second exponential component of plasma activity concentration curve", "setting": "[14]; [19]", "value": 63, "unit": "min"},
      {"measurement": "plasma clearance", "setting": "[14]; listed as [^11 C] FMAU", "value": "rapid clearance"},
      {"measurement": "radiolabeled metabolites in plasma", "setting": "[15]", "value": "no radiolabeled metabolites"},
      {"measurement": "localization in brain tumor / tumor visualization", "setting": "[16]", "value": "localized selectively within the proliferating cells of brain tumors, but not in normal brain cells; also recorded: the tumor was well visualized; also recorded: accumulated within brain tumor cells that were not infected with herpes simplex virus"}
    ]},
    {"smiles": "[11CH3]c1cn([C@H]2CC(O)[C@@H](CO)O2)c(=O)[nH]c1=O", "note": "(stereo partly shown) [[^11 C]TdR]", "values": [
      {"measurement": "plasma clearance", "setting": "[14]", "value": "rapid plasma clearance"},
      {"measurement": "radiolabeled metabolites in plasma", "setting": "[15]", "value": "progressive rise in radiolabeled metabolites"}
    ]},
    {"smiles": "Nc1nc(=O)n([C@@H]2O[C@H](CO)[C@@H](O)[C@@H]2F)cc1[125I]", "note": "[[^125 I] labeled FIAC, [^125 I]2'-fluoro-5-iodo-1-β-D-arabinofuranosyl-cytosine]", "values": [
      {"measurement": "dehalogenation / deiodination in vivo", "setting": "[1]", "value": "extensive deiodination in vivo"}
    ]},
    {"smiles": "O=c1[nH]c(=O)n([C@@H]2O[C@H](COC3CCCCO3)[C@@H](OC3CCCCO3)[C@@H]2F)cc1I", "note": "(stereo partly drawn) [compound 2, 3', 5'-O-bis-(tetrahydropyranyl)-2'-fluoro-5-iodo-1-β-D-arabino-furanosyluracil]", "values": [
      {"measurement": "storage stability at room temperature", "setting": "[17]", "value": "at least 10 months"}
    ]},
    {"smiles": "O=c1[nH]c(=O)n([C@H]2C[C@H](O)[C@@H](CO)O2)cc1[131I]", "note": "[radioiodinated IUdR]", "values": [
      {"measurement": "dehalogenation / deiodination in vivo", "setting": "[1]", "value": "significant dehalogenation"}
    ]}
  ]
}
